# Results: patent US20260226086A1, “COMPOUNDS AND COMPOSITIONS AS STAT3 DEGRADERS AND USES THEREOF” (REGENTS OF THE UNIVERSITY OF MICHIGAN, priority 2023, published 2026)
# How the values were obtained:
# Type in all cases: cell-based
# [1] = target: T1, STAT3 (Homo sapiens, UniProt P40763); test: HiBiT assay, STAT3 degradation in STAT3-HiBiT KI HeLa cells; details: 24 h; for DC50: read-out: STAT3 Degradation (HeLa 24 h HiBit) DC50
# T1 construct: This cell line is a clone created by using CRISPR-Cas9 to fuse HiBiT to the 3′ end of STAT3 in HeLa cells; host or cells: STAT3-HiBiT KI HeLa cell line (CRISPR-Cas9 knock-in clone)
# Procedure, shortened: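 Luminescence of endogenous HiBiT-tagged STAT3 (C-terminal knock-in, HeLa) was measured with lytic Nano-Glo detection after 24 h exposure to serially diluted compounds at 37 °C. Cells plated at 20000/well; untreated cells served as control, and triplicate means were fit by four-parameter regression to give IC50.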
# [2] = test system: SU-DHL-1 cells; test: CellTiter-Glo 2.0 cell viability assay, SU-DHL-1; details: Homo sapiens, 96 h, 4 days
# Protocol: For example, cell viability may be determined by CellTiter-Glo 2.0 Cell Viability Assay. In a typical procedure, cells seeded at certain amounts of cells (e.g., 1000 cells) per well are incubated with serially diluted compounds for certain period (e.g., 4 days) under certain conditions (e.g., at 37° C. with 5% CO2). At the end of treatment, CellTiter-Glo 2.0 is added to the wells and luminescence is acquired on TECAN SPARK plate reader. Untreated cells are used as control, Data points are fit with an equation (e.g., a four-parameter equation) to generate a concentration-response curve. IC50 values are calculated using a nonlinear regression analysis of the mean±SD from triplicate.
# SU-DHL-1 and SUP-M2 cell viability was determined by CellTiter-Glo 2.0 Cell Viability Assay (Promega). SU-DHL-1 cell line was purchased from ATCC (Manassas, VA) and SUP-M2 (ACC-509) was purchased from DSMZ (Germany). RPMI 1640 medium and fetal bovine serum (FBS) were purchased from Gibco/Thermo Fisher Scientific. In a typical procedure, cells seeded at 1000 cells per well in 384-well white plates (Corning) were incubated with serially diluted compounds for 4 days at 37° C. with 5% C02. At the end of treatment, CellTiter-Glo 2.0 was added to the wells and luminescence was acquired on TECAN SPARK plate reader. Untreated cells were used as control. Data points were fit with a four-parameter equation to generate a concentration-response curve. IC50 values were calculated using a nonlinear regression analysis of the mean±SD from triplicate.
# [3] = test system: SUP-M2 cells; test: CellTiter-Glo 2.0 cell viability assay, SUP-M2; details: SUP-M2, 96 h, 4 days
# Procedure, shortened: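 IC50 derived by four-parameter nonlinear regression on triplicate luminescence data (CellTiter-Glo 2.0), normalised to untreated controls. Cells plated at 1000/well received serial compound dilutions for 4 days at 37 °C with 5% CO2.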
# T1 sequence (P40763 whole entry): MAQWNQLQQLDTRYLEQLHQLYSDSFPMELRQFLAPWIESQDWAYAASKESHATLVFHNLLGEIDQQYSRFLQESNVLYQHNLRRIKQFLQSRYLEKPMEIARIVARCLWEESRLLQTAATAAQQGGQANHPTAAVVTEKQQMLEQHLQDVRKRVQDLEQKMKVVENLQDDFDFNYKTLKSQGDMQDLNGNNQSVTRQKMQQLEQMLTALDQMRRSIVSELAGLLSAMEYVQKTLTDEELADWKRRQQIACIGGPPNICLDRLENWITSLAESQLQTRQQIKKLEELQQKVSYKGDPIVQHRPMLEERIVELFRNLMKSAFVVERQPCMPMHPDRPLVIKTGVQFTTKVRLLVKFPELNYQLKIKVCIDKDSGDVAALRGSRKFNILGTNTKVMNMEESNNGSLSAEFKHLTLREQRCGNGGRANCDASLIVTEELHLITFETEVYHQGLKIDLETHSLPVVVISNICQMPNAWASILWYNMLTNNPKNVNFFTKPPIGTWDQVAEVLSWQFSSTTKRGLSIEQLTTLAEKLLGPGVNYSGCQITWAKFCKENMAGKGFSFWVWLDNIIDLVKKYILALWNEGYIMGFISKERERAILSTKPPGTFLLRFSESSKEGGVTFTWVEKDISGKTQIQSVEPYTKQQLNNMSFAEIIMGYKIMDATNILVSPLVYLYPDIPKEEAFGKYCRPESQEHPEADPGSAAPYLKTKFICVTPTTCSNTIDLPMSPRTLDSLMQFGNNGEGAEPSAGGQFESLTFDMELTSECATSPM
structure (smiles),measurement,setting,value
"Cc1ncsc1-c1ccc([C@H](C)NC(=O)[C@@H]2C[C@@H](O)CN2C(=O)[C@@H](n2cc(CCCCCCCCC(=O)N3CC[C@H]4CC[C@@H](C(=O)N[C@@H](CCC(N)=O)C(=O)NC(c5ccccc5)c5ccccc5)N4C(=O)[C@@H](NC(=O)c4cc5cc(C(=O)P(=O)(O)O)ccc5[nH]4)C3)nn2)C(C)(C)C)cc1 [Compound 61, (2-(((5S,8S,10aR)-8-(((S)-5-amino-1-(benzhydrylamino)-1,5-dioxopentan-2-yl)carbamoyl)-3-(9-(1-((S)-1-((2S,4R)-4-hydroxy-2-(((S)-1-(4-(4-methylthiazol-5-yl)phenyl)ethyl)carbamoyl)pyrrolidin-1-yl)-3,3-dimethyl-1-oxobutan-2-yl)-1H-1,2,3-triazol-4-yl)nonanoyl)-6-oxodeca-hydropyrrolo[1,2-a][1,5]diazocin-5-yl)carbamoyl)-1H-indole-5-carbonyl)phosphonic acid]",DC50,[1],> 1000 nM
same,IC50,[2],> 1000 nM
same,IC50,[3],> 1000 nM
"Cc1ncsc1-c1ccc([C@H](C)NC(=O)[C@@H]2C[C@@H](O)CN2C(=O)[C@@H](NC(=O)CCCCC(=O)N2CC[C@H]3CC[C@@H](C(=O)N[C@@H](CCC(N)=O)C(=O)NC(c4ccccc4)c4ccccc4)N3C(=O)[C@@H](NC(=O)c3cc4cc(C(=O)P(=O)(O)O)ccc4[nH]3)C2)C(C)(C)C)cc1 [Compound 49, (2-(((5S,8S,10aR)-8-(((S)-5-amino-1-(benzhydrylamino)-1,5-dioxopentan-2-yl)carbamoyl)-3-(6-(((S)-1-((2S,4R)-4-hydroxy-2-(((S)-1-(4-(4-methylthiazol-5-yl)phenyl)ethyl)carbamoyl)pyrrolidin-1-yl)-3,3-dimethyl-1-oxobutan-2-yl)amino)-6-oxohexanoyl)-6-oxodecahydropyrrolo[1,2-a][1,5]diazocin-5-yl)carbamoyl)-1H-indole-5-carbonyl)phosphonic acid]",DC50,[1],10 to 100 nM
same,IC50,[2],10 to 100 nM
same,IC50,[3],10 to 100 nM
"CCS(=O)(=O)c1ccc(CNC(=O)[C@H](CCC(N)=O)NC(=O)[C@@H]2CC[C@@H]3CCN(C(=O)CCCCc4cn([C@H](C(=O)N5C[C@H](O)C[C@H]5C(=O)N[C@@H](CN5CCOCC5)c5ccc(-c6scnc6C)cc5)C(C)(C)C)nn4)C[C@H](NC(=O)c4cc5cc(C(=O)P(=O)(O)O)ccc5[nH]4)C(=O)N32)cc1 [Compound 16, (2-(((5S,8S,10aR)-8-(((S)-5-amino-1-((4-(ethylsulfonyl)benzyl)amino)-1,5-dioxopentan-2-yl)carbamoyl)-3-(5-(1-((S)-1-((2S,4R)-4-hydroxy-2-(((R)-1-(4-(4-methylthiazol-5-yl)phenyl)-2-morpho-linoethyl)carbamoyl)pyrrolidin-1-yl)-3,3-dimethyl-1-oxobutan-2-yl)-1H-1,2,3-triazol-4-yl)pentanoyl)-6-oxodecahydropyrrolo[1,2-a][1,5]diazocin-5-yl)carbamoyl)-1H-indole-5-carbonyl)phosphonic acid]",Dmax at 1 µM,[1],> 80%
same,DC50,[1],10 to 100 nM
same,IC50,[2],100 to 1000 nM
same,IC50,[3],100 to 1000 nM
"CC(=O)N1CC[C@H]2CC[C@@H](C(=O)N[C@@H](CCC(N)=O)COc3cccc(CCCC(=O)N4CCC([C@@H](C(=O)N5C[C@H](O)C[C@H]5C(=O)N[C@@H](C)c5ccc(-c6scnc6C)cc5)n5cc(C6CC6)nn5)CC4)c3Cl)N2C(=O)[C@@H](NC(=O)c2cc3cc(C(=O)P(=O)(O)O)ccc3[nH]2)C1 [Compound 37, (2-(((5S,8S,10aR)-3-acetyl-8-(((S)-5-amino-1-(2-chloro-3-(4-(4-((S)-1-(4-cyclopropyl-1H-1,2,3-triazol-1-yl)-2-((2S,4R)-4-hydroxy-2-(((S)-1-(4-(4-methylthiazol-5-yl)phenyl)ethyl)carbamoyl)pyrrolidin-1-yl)-2-oxoethyl)piperidin-1-yl)-4-oxobutyl)phenoxy)-5-oxopentan-2-yl)carbamoyl)-6-oxodecahydropyrrolo[1,2-a][1,5]diazocin-5-yl)carbamoyl)-1H-indole-5-carbonyl)phosphonic acid]",Dmax at 1 µM,[1],60 to 80%
same,DC50,[1],100 to 1000 nM
same,IC50,[2],> 1000 nM
same,IC50,[3],10 to 100 nM
"CC(=O)N1CC[C@H]2CC[C@@H](C(=O)N[C@@H](CCC(N)=O)COc3cccc(CCCc4cn([C@H](C(=O)N5C[C@H](O)C[C@H]5C(=O)N[C@@H](C)c5ccc(-c6scnc6C)cc5)C5CCN(C6CCOCC6)CC5)nn4)c3Cl)N2C(=O)[C@@H](NC(=O)c2cc3cc(C(=O)P(=O)(O)O)ccc3[nH]2)C1 [Compound 25, (2-(((5S,8S,10aR)-3-acetyl-8-(((S)-5-amino-1-(2-chloro-3-(3-(1-((S)-2-((2S,4R)-4-hydroxy-2-(((S)-1-(4-(4-methylthiazol-5-yl)phenyl)ethyl)carbamoyl)pyrrolidin-1-yl)-2-oxo-1-(1-(tetrahydro-2H-pyran-4-yl)piperidin-4-yl)ethyl)-1H-1,2,3-triazol-4-yl)propyl)phenoxy)-5-oxopentan-2-yl)carbamoyl)-6-oxodecahydropyrrolo [1,2-a][1,5]diazocin-5-yl)carbamoyl)-1H-indole-5-carbonyl)phosphonic acid]",Dmax at 1 µM,[1],60 to 80%
same,DC50,[1],100 to 1000 nM
same,IC50,[2],10 to 100 nM
same,IC50,[3],10 to 100 nM
"Cc1ncsc1-c1ccc([C@H](C)NC(=O)[C@@H]2C[C@@H](O)CN2C(=O)[C@@H](n2cc(CCCCC(=O)N3CC[C@H]4CC[C@@H](C(=O)N[C@@H](CCC(N)=O)COc5cccc(Cl)c5)N4C(=O)[C@@H](NC(=O)c4cc5cc(C(=O)P(=O)(O)O)ccc5[nH]4)C3)nn2)C(C)(C)C)cc1 [Compound 12, (2-(((5S,8S,10aR)-8-(((S)-5-amino-1-(3-chlorophenoxy)-5-oxopentan-2-yl)carbamoyl)-3-(5-(1-((S)-1-((2S,4R)-4-hydroxy-2-(((S)-1-(4-(4-methylthiazol-5-yl)phenyl)ethyl)carbamoyl)pyrrolidin-1-yl)-3,3-dimethyl-1-oxobutan-2-yl)-1H-1,2,3-triazol-4-yl)pentanoyl)-6-oxodecahydropyrrolo[1,2-a][1,5]diazocin-5-yl)carbamoyl)-1H-indole-5-carbonyl)phosphonic acid]",Dmax at 1 µM,[1],> 80%
same,DC50,[1],10 to 100 nM
same,IC50,[2],100 to 1000 nM
same,IC50,[3],10 to 100 nM
"CC(=O)N1CC[C@H]2CC[C@@H](C(=O)N[C@@H](CCC(N)=O)COc3cccc(CCCc4cn([C@H](C(=O)N5C[C@H](O)C[C@H]5C(=O)N[C@@H](C)c5ccc(-c6scnc6C)cc5)C5CCCCC5)nn4)c3Cl)N2C(=O)[C@@H](NC(=O)c2cc3cc(C(=O)P(=O)(O)O)ccc3[nH]2)C1 [Compound 19, (2-(((5S,8S,10aR)-3-acetyl-8-(((S)-5-amino-1-(2-chloro-3-(3-(1-((S)-1-cyclohexyl-2-((2S,4R)-4-hydroxy-2-(((S)-1-(4-(4-methylthiazol-5-yl)phenyl)ethyl)carbamoyl)pyrrolidin-1-yl)-2-oxoethyl)-1H-1,2,3-triazol-4-yl)propyl)phenoxy)-5-oxopentan-2-yl)carbamoyl)-6-oxodecahydropyrrolo[1,2-a][1,5]diazocin-5-yl)carbamoyl)-1H-indole-5-carbonyl)phosphonic acid]",Dmax at 1 µM,[1],> 80%
same,DC50,[1],< 10 nM
same,IC50,[2],< 10 nM
same,IC50,[3],< 10 nM
"CC(=O)N1CC[C@H]2CC[C@@H](C(=O)N[C@@H](CCC(N)=O)COc3cccc(CCCCNC(=O)C[C@H](NC(=O)[C@@H]4C[C@@H](O)CN4C(=O)[C@H](C4CCCCC4)n4cc(C5CC5)nn4)c4ccc(-c5scnc5C)cc4)c3Cl)N2C(=O)[C@@H](NC(=O)c2cc3cc(C(=O)P(=O)(O)O)ccc3[nH]2)C1 [Compound 36, (2-(((5S,8S,10aR)-3-acetyl-8-(((S)-5-amino-1-(2-chloro-3-(4-((S)-3-((2S,4R)-1-((S)-2-cyclohexyl-2-(4-cyclopropyl-1H-1,2,3-triazol-1-yl)acetyl)-4-hydroxypyrrolidine-2-carboxamido)-3-(4-(4-methylthiazol-5-yl)phenyl)propanamido)butyl)phenoxy)-5-oxopentan-2-yl)carbamoyl)-6-oxodecahydropyrrolo[1,2-a][1,5]diazocin-5-yl)carbamoyl)-1H-indole-5-carbonyl)phosphonic acid]",Dmax at 1 µM,[1],> 80%
same,DC50,[1],< 10 nM
same,IC50,[2],< 10 nM
same,IC50,[3],< 10 nM
